# Experimental data taken from US8546377B2 (AbbVie Inc., priority 2009, dated 2013).
# Read-outs that look alike come from different tables or passages of the source.
# Legend:
# 5HT2B receptors = biological target: T1, 5HT2B receptors (Homo sapiens, UniProt P41595); assay: Human 5-HT2B functional assay in CHO-K1 cells (calcium flux, FLIPR); type: cell-based
# T1 construct: expressed in transfected cells; host or cells: CHO-K1 cells
# Method in brief: (§1)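 EC50 came from a 4-parameter logistic fit, with Emax expressed relative to serotonin, of intracellular Ca2+ rises read on FLIPR at 480/530 nm, 25° C, over 3 min. Compounds ran from 10 μM in six 1:10 steps (0.2% DMSO) on serum-starved CHO-K1 transfectants pre-loaded 60 min with Ca4 dye and probenecid.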
# 5HT2C receptors = biological target: T2, 5HT2C receptors (Homo sapiens, UniProt P28335); assay: Human 5-HT2C functional assay in CHO-K1 cells (calcium flux, FLIPR); type: cell-based; set-up: expressed in transfected cells; host or cells: CHO-K1 cells
# T2 sequence (P28335 33-458): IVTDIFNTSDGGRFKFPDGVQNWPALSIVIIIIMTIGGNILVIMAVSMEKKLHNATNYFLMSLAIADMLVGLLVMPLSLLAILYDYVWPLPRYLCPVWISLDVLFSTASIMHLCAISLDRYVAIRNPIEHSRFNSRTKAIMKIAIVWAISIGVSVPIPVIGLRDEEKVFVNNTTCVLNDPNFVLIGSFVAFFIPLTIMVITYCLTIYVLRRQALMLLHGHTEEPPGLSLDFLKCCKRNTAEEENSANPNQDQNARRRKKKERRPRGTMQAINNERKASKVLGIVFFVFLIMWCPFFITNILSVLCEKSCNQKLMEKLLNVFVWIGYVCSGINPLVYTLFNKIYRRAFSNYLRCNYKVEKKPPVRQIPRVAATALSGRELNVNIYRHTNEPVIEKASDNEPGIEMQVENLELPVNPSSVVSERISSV
# Method in brief: as §1
# [1] = CHO-K1, read-out: Emax (%), 5-HT2c Agonist Activity, CHO-K1 cells, percentage relative to the effect of serotonin
# [2] = CHO-K1 cells over-expressing 5HT2B, calcium flux, read-out: EC50 (μM), 5-HT2B Agonist Activity
# [3] = CHO-K1 cells, percentage relative to the effect of serotonin, read-out: Emax (%), 5-HT2B Agonist Activity
# [4] = CHO-K1 cells over-expressing 5HT2C, calcium flux, read-out: EC50 (μM), 5-HT2c Agonist Activity
# [5] = CHO-K1 cells, percentage relative to the effect of serotonin, read-out: Emax (%), 5-HT2c Agonist Activity
# [6] = CHO-K1, read-out: Emax (%), 5-HT2B Agonist Activity
# T1 sequence (P41595 whole entry): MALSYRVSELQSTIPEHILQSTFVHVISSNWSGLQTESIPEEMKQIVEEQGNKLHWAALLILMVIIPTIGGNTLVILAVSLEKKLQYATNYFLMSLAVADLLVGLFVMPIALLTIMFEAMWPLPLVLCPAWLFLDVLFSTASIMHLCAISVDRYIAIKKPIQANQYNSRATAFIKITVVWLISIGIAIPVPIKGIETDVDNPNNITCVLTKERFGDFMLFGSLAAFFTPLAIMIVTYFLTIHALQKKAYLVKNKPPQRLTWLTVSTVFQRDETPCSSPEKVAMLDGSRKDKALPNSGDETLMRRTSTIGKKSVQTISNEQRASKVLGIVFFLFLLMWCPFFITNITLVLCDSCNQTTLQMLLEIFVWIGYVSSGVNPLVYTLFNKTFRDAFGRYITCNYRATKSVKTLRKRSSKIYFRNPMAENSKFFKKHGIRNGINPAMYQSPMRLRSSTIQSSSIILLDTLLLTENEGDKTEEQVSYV
Structure (SMILES),EC50 (5HT2B receptors; [2]) [µM],Emax (5HT2B receptors; [3]) [%],EC50 (5HT2C receptors; [4]) [µM],Emax (5HT2C receptors; [5]) [%],"Emax (5HT2C receptors; CHO-K1, read-out: Emax (%), 5-HT2c Agonist Activity) [%]",EC50 (5HT2B receptors) [µM],EC50 (5HT2C receptors) [µM],Emax (5HT2C receptors; [1]) [%],Emax (5HT2B receptors; [6]) [%]
"CN1CCN2c3ccc(Cl)cc3OCC[C@H]2C1 [Example 220, (4aS)-9-chloro-3-methyl-2,3,4,4a,5,6-hexahydro-1H-pyrazino[2,1-d][1,5]benzoxazepine]",–,–,–,–,–,> 10,0.04,40,–
"Fc1ccc2c(c1)N1CCNC[C@H]1CCO2 [Example 258, (4aR)-10-fluoro-2,3,4,4a,5,6-hexahydro-1H-pyrazino[2,1-d][1,5]benzoxazepine]",–,–,–,–,–,0.007,0.01,80,80
"O=C1C[C@H]2CNCCN2c2cc(OCCc3ccccc3F)ccc2N1 [Example 118, (4aS)-10-[2-(2-fluorophenyl)ethoxy]-1,2,3,4,4a,5-hexahydropyrazino[1,2-a][1,5]benzodiazepin-6(7H)-one]",> 10,–,0.009,> 120,–,–,–,–,–
"CC(C)Oc1cccc(-c2ccc3c(c2)N2CCNC[C@@H]2CC(=O)N3)c1 [Example 117, (4aS)-10-(3-isopropoxyphenyl)-1,2,3,4,4a,5-hexahydropyrazino[1,2-a][1,5]benzodiazepin-6(7H)-one]",> 10,–,0.001,> 120,–,–,–,–,–
"O=C1C[C@H]2CNCCN2c2cc(-c3ccccc3F)ccc2N1 [Example 116, (4aS)-10-(2-fluorophenyl)-1,2,3,4,4a,5-hexahydropyrazino[1,2-a][1,5]benzodiazepin-6(7H)-one]",0.05,30,0.008,> 120,–,–,–,–,–
"CN1CCC2CNCCN2c2ccc(Cl)cc21 (stereo not shown) [Example 81, 9-chloro-7-methyl-1,2,3,4,4a,5,6,7-octahydropyrazino[1,2-a][1,5]benzodiazepine]",–,–,–,–,–,1,0.05,> 120,20
"O=C1C[C@@H]2CNCCN2c2cccc(F)c2N1 [Example 83, (4aR)-8-fluoro-1,2,3,4,4a,5-hexahydropyrazino[1,2-a][1,5]benzodiazepin-6(7H)-one]",–,–,–,–,–,1.05,0.763,> 120,27
"O=C1CC2CNCCN2c2cc(-c3cccc(F)c3)ccc2N1 (stereo not shown) [Example 61, 10-(3-fluorophenyl)-1,2,3,4,4a,5-hexahydropyrazino[1,2-a][1,5]benzodiazepin-6(7H)-one]",> 10,–,0.1,> 120,–,–,–,–,–
"CN1CCN2c3ccccc3OCC[C@H]2C1 [Example 132, (4aS)-3-methyl-2,3,4,4a,5,6-hexahydro-1H-pyrazino[2,1-d][1,5]benzoxazepine]",–,–,–,–,–,> 10,0.007,> 120,–
"Nc1ccc2c(c1)OCC[C@H]1CNCCN21 [Example 135, (4aS)-2,3,4,4a,5,6-hexahydro-1H-pyrazino[2,1-d][1,5]benzoxazepin-9-amine]",> 10,–,1,–,–,–,–,80,–
"O=C1CC2CNCCN2c2cc(/C=C/c3cc(F)cc(F)c3)ccc2N1 (stereo not shown) [Example 143, 10-[(E)-2-(3,5-difluorophenyl)vinyl]-1,2,3,4,4a,5-hexahydropyrazino[1,2-a][1,5]benzodiazepin-6(7H)-one]",1,60,0.02,> 120,–,–,–,–,–
"CN1CCN2c3ccccc3CCCC2C1 (stereo not shown) [Example 183, 3-methyl-1,2,3,4,4a,5,6,7-octahydropyrazino[1,2-a][1]benzazepine]",–,–,–,–,–,> 10,0.003,> 120,–
"O=C1CC2CNCCN2c2cc(-c3ccccn3)ccc2N1 (stereo not shown) [Example 71, 10-(pyridin-2-yl)-1,2,3,4,4a,5-hexahydropyrazino[1,2-a][1,5]benzodiazepin-6(7H)-one]",–,–,–,–,–,0.02,0.002,> 120,100
"O=C1CC2CNCCN2c2cc(-c3cnn(Cc4ccccc4)c3)ccc2N1 (stereo not shown) [Example 56, 10-(1-benzyl-1H-pyrazol-4-yl)-1,2,3,4,4a,5-hexahydropyrazino[1,2-a][1,5]benzodiazepin-6(7H)-one]",> 10,–,1,110,–,–,–,–,–
"O=C1C[C@@H]2CNCCN2c2c(F)cccc2N1 [Example 87, (4aR)-11-fluoro-1,2,3,4,4a,5-hexahydropyrazino[1,2-a][1,5]benzodiazepin-6(7H)-one]",–,–,–,–,–,> 10,0.9,> 120,–
"CC(C)N1CCN2c3ccccc3OCC[C@H]2C1 [Example 264, (4aS)-3-isopropyl-2,3,4,4a,5,6-hexahydro-1H-pyrazino[2,1-d][1,5]benzoxazepine]",> 10,–,0.9,–,–,–,–,50,–
"COc1ccc2c(c1)OCC[C@H]1CN(C)CCN21 [Example 232, (4aS)-9-methoxy-3-methyl-2,3,4,4a,5,6-hexahydro-1H-pyrazino[2,1-d][1,5]benzoxazepine]",–,–,–,–,–,> 10,0.05,50,–
"COc1ccccc1-c1ccc2c(c1)N1CCNCC1CC(=O)N2 (stereo not shown) [Example 63, 10-(2-methoxyphenyl)-1,2,3,4,4a,5-hexahydropyrazino[1,2-a][1,5]benzodiazepin-6(7H)-one]",> 10,–,0.09,110,–,–,–,–,–
"O=C1CC2CNCCN2c2cc(-c3cccc(-n4cccn4)c3)ccc2N1 (stereo not shown) [Example 73, 10-[3-(1H-pyrazol-1-yl)phenyl]-1,2,3,4,4a,5-hexahydropyrazino[1,2-a][1,5]benzodiazepin-6(7H)-one]",> 10,–,0.03,110,–,–,–,–,–
"[2H]c1ccc2c(c1)OCC[C@H]1CNCCN21 [Example 263, (4aS)-(9-^2H)-2,3,4,4a,5,6-hexahydro-1H-pyrazino[2,1-d][1,5]benzoxazepine]",–,–,–,–,–,0.09,0.003,95,15

# Now from value to molecule, other results behind:
EC50 (5HT2B receptors; [2]) [µM],Emax (5HT2B receptors; [3]) [%],EC50 (5HT2C receptors; [4]) [µM],Emax (5HT2C receptors; [5]) [%],"Emax (5HT2C receptors; CHO-K1, read-out: Emax (%), 5-HT2c Agonist Activity) [%]",Structure (SMILES),EC50 (5HT2B receptors) [µM],EC50 (5HT2C receptors) [µM],Emax (5HT2C receptors; [1]) [%],Emax (5HT2B receptors; [6]) [%]
1,25,0.008,> 120,–,"COc1cccc(-c2ccc3c(c2)N2CCNC[C@@H]2CCO3)c1 [Example 193, (4aS)-10-(3-methoxyphenyl)-2,3,4,4a,5,6-hexahydro-1H-pyrazino[2,1-d][1,5]benzoxazepine]",–,–,–,–
> 10,–,0.0797,> 120,–,"C[C@@H](Cc1ccccc1)Oc1ccc2c(c1)N1CCNCC1CC(=O)N2 (stereo partly drawn) [Example 160, 10-{[(2S)-1-phenylpropan-2-yl]oxy}-1,2,3,4,4a,5-hexahydropyrazino[1,2-a][1,5]benzodiazepin-6(7H)-one]",–,–,–,–
> 10,–,0.007,–,95,"Cc1cccc2c1OCC[C@H]1CN(CCF)CCN21 [Example 246, (4aS)-3-(2-fluoroethyl)-8-methyl-2,3,4,4a,5,6-hexahydro-1H-pyrazino[2,1-d][1,5]benzoxazepine]",–,–,–,–
> 10,–,0.009,> 120,–,"CS(=O)(=O)c1cccc(-c2ccc3c(c2)N2CCNC[C@@H]2CCO3)c1 [Example 196, (4aS)-10-[3-(methylsulfonyl)phenyl]-2,3,4,4a,5,6-hexahydro-1H-pyrazino[2,1-d][1,5]benzoxazepine]",–,–,–,–
1,15,0.005,> 120,–,"Oc1ccc(-c2ccc3c(c2)N2CCNC[C@@H]2CCO3)cc1 [Example 202, 4-[(4aS)-2,3,4,4a,5,6-hexahydro-1H-pyrazino[2,1-d][1,5]benzoxazepin-10-yl]phenol]",–,–,–,–
> 10,–,0.4,> 120,–,"Cc1ccc(-c2ccc3c(c2)N2CCNC[C@@H]2CCO3)cc1 [Example 191, (4aS)-10-(4-methylphenyl)-2,3,4,4a,5,6-hexahydro-1H-pyrazino[2,1-d][1,5]benzoxazepine]",–,–,–,–
> 10,–,0.4,> 120,–,"COc1ccc(-c2ccc3c(c2)N2CCNC[C@@H]2CCO3)cc1 [Example 194, (4aS)-10-(4-methoxyphenyl)-2,3,4,4a,5,6-hexahydro-1H-pyrazino[2,1-d][1,5]benzoxazepine]",–,–,–,–
0.4,45,0.007,80,–,"c1ccc(CCc2ccc3c(c2)N2CCNC[C@@H]2CCO3)cc1 [Example 212, (4aS)-10-(2-phenylethyl)-2,3,4,4a,5,6-hexahydro-1H-pyrazino[2,1-d][1,5]benzoxazepine]",–,–,–,–
> 10,–,0.0001,95,–,"c1cc(-c2ccsc2)c2c(c1)N1CCNC[C@@H]1CCO2 [Example 250, (4aS)-8-(3-thienyl)-2,3,4,4a,5,6-hexahydro-1H-pyrazino[2,1-d][1,5]benzoxazepine]",–,–,–,–
